The target of one test is T1, IKKε (Homo sapiens, UniProt Q14164).
T1 construct: His-tag; made in house; host or cells: Sf9 insect cells
T1 sequence (Q14164 1-716): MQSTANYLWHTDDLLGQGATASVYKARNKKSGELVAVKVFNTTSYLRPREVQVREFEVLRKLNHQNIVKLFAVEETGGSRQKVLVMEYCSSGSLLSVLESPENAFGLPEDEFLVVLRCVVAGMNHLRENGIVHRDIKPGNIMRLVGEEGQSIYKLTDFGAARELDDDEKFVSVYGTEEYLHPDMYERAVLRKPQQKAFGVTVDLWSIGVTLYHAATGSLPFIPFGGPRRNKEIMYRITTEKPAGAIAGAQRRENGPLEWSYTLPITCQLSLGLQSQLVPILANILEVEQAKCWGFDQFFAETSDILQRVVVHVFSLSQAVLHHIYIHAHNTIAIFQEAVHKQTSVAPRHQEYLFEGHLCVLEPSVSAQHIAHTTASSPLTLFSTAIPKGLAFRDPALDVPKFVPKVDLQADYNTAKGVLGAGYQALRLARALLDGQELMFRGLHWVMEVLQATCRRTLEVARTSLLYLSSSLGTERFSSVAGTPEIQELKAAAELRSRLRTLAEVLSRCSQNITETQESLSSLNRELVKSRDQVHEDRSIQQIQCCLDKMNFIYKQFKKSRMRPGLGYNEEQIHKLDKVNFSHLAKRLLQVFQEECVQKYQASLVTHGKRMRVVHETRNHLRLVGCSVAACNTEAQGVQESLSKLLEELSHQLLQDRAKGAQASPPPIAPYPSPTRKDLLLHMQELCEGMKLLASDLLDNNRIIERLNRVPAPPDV
The experiment in a line: In-vitro IKKε kinase assay ([γ33]ATP filter-plate). Format: biochemical. In a few lines: (§1)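 His-tagged IKKε and TBK1 from Sf9 cells were assayed with myelin basic protein or casein and [γ33]ATP at 2×Km ATP (32 μM for IKKε, 60 μM for TBK1). Enzyme was 0.1 or 0.015 μg/ml for IKKε and 0.1 or 0.02 μg/ml for TBK1 (normal/sensitized). Reactions ran 30-45 min, were filter-captured, scintillation-counted, and normalized to DMSO after background subtraction.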

Test [1] deals with IKKε-mediated phosphorylation of IRF3. The experiment in a line: In-situ phosphorylation of IRF3 (pIRF3 Ser396 ELISA) in HEK293T cells cotransfected with IRF3 and IKKε. Conditions: Homo sapiens, HEK-293T. The format is cell-based. In a few lines: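 Cells for the IRF7 Western blots carried IRF7 and TBK1 plasmids, were seeded at 150,000/well, exposed to compound overnight and probed for pSer477/Ser479 IRF7. The ELISA readout used IRF3 + IKKε-cotransfected HEK293T at 20,000/well with 20 h treatment, quantifying pSer396 IRF3 relative to DMSO, plus a parallel CellTiter-Glo viability check.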

Another test concerns the target T2, TBK1 (Homo sapiens, UniProt Q9UHD2).
T2 construct: His-tag; made in house; host or cells: Sf9 insect cells
T2 sequence (Q9UHD2 1-729): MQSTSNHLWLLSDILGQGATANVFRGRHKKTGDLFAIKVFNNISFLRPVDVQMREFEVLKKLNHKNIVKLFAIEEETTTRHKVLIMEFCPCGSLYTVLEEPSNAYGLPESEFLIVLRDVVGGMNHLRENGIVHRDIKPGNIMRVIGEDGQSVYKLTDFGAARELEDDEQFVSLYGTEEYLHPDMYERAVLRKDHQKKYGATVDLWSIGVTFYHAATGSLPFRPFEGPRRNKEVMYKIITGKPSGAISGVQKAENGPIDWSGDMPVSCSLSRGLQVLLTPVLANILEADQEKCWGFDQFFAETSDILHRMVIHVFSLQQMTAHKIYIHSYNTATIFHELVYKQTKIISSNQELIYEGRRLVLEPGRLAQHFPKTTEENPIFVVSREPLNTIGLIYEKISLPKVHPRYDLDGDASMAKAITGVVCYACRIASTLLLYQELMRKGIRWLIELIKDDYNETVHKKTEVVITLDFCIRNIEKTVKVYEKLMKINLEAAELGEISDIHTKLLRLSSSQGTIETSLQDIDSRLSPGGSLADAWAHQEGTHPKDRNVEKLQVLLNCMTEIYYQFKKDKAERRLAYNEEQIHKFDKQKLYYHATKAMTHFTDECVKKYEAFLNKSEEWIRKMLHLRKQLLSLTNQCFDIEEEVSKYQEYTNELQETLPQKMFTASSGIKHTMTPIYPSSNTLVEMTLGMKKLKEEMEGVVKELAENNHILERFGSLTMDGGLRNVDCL
The test can be described thus: In-vitro TBK1 kinase assay ([γ33]ATP filter-plate). The format is biochemical. In a few lines: as §1

Where [2] appears, read: text bins, read-out: IC50 for inhibition of the kinase activity of IKKε.
Where [3] appears, read: HEK293T cells, 20 hours, text bins, read-out: IC50 for inhibition of the in-situ IKKε-mediated phosphorylation of IRF3.
Setting [4] is: text bins, read-out: IC50 for inhibition of the kinase activity of TBK1.

Read-outs that look alike come from different tables or passages of the source. Bounds are passed on as bounds.

Results on 16 compounds are retold here after patent US20150352108A1, “AMINO-PYRIMIDINE COMPOUNDS AS INHIBITORS OF TBK1 AND/OR IKK EPSILON” (Alzheimer's Institute of America, priority 2009, published 2015).

For `COc1cc(Nc2nccc(-c3ccc(OC4CCOCC4)c(C#N)c3)n2)ccc1S(=O)(=O)N1CCC(N(C)C)C1` (stereo not drawn) [compound 400, 5-{2-[(4-{[3-(dimethylamino)pyrrolidin-1-yl]sulfonyl}-3-methoxyphenyl)amino]pyrimidin-4-yl}-2-(tetrahydro-2H-pyran-4-yloxy)benzonitrile], the IC50 on IKKε (setting [2]) is below 5 nM; in test [1] (setting [3]) it was below 100 nM; at TBK1 (setting [4]) it was below 10 nM.
The like results for `CN(C)S(=O)(=O)Cc1ccc(Nc2nccc(-c3ccc(OC4CCOCC4)c(C#N)c3)n2)cc1` [compound 401, 1-[4-({4-[3-Cyano-4-(tetrahydro-2H-pyran-4-yloxy)phenyl]pyrimidin-2-yl}amino)phenyl]-N,N-dimethylmethane-sulfonamide] were, in that order, below 5 nM, below 100 nM and below 10 nM.
On the same counts, the results for `N#Cc1cc(-c2ccnc(Nc3ccc(CS(=O)(=O)NCCO)cc3)n2)ccc1OC1CCOCC1` [compound 402, 1-[4-({4-[3-Cyano-4-(tetrahydro-2H-pyran-4-yloxy)phenyl]pyrimidin-2-yl}amino)phenyl]-N-(2-hydroxyethyl) methanesulfonamide] are below 5 nM, below 100 nM and below 10 nM.
Regarding `N#Cc1cc(-c2ccnc(Nc3ccc(CS(=O)(=O)N4CCOCC4)cc3)n2)ccc1OC1CCOCC1` [compound 404, 5-[2-({4-[(Morpholin-4-ylsulfonyl)methyl]phenyl}amino)pyrimidin-4-yl]-2-(tetrahydro-2H-pyran-4-yloxy)benzonitrile], the IC50 at IKKε (setting [2]) was below 5 nM; in test [1] (setting [3]), below 100 nM; on TBK1 (setting [4]), below 10 nM.
On the same counts, the results for `N#Cc1cc(-c2ccnc(Nc3ccc(CS(=O)(=O)NCCCN4CCOCC4)cc3)n2)ccc1OC1CCOCC1` [compound 405, 1-[4-({4-[3-Cyano-4-(tetrahydro-2H-pyran-4-yloxy)phenyl]pyrimidin-2-yl}amino)phenyl]-N-[3-(morpholin-4-yl)propyl] methanesulfonamide] are below 5 nM, below 100 nM and below 10 nM.
Consider `N#Cc1cc(-c2ccnc(Nc3ccc(CS(=O)(=O)N4CCN(CCO)CC4)cc3)n2)ccc1OC1CCOCC1` [compound 406, 5-(2-{[4-({[4-(2-Hydroxyethyl)piperazin-1-yl]sulfonyl}methyl)phenyl]amino}pyrimidin-4-yl)-2-(tetrahydro-2H-pyran-4-yloxy)benzonitrile], for which the IC50 on IKKε (setting [2]) was below 5 nM; in test [1] (setting [3]), below 100 nM; at TBK1 (setting [4]) it was below 10 nM.
The like results for `CC(C)N1CCN(C(=O)Cc2cccc(Nc3nccc(-c4ccc(OC5CCOCC5)c(C#N)c4)n3)c2)CC1` [compound 408, 5-{2-[(3-{2-Oxo-2-[4-(propan-2-yl)piperazin-1-yl]ethyl}phenyl)amino]pyrimidin-4-yl}-2-(tetrahydro-2H-pyran-4-yloxy)benzonitrile] were, in that order, 5 to 50 nM, below 100 nM and below 10 nM.
The like results for `CNS(=O)(=O)Cc1ccc(Nc2nccc(-c3ccc(OC4CCOCC4)c(C#N)c3)n2)cc1` [compound 413, 1-[4-({4-[3-cyano-4-(tetrahydro-2H-pyran-4-yloxy)phenyl]pyrimidin-2-yl}amino)phenyl]-N-methylmethane-sulfonamide] were, in that order, below 5 nM, below 100 nM and below 10 nM.
On the same counts, the results for `CNS(=O)(=O)Cc1ccc(Nc2nccc(-c3ccc(NC(=O)C(C)C)c(C#N)c3)n2)cc1` [compound 414, N-{2-cyano-4-[2-({4-[(methylsulfamoyl)methyl]phenyl}amino)pyrimidin-4-yl]phenyl}-2-methylpropanamide] are 5 to 50 nM, 100 to 250 nM and 10 to 100 nM.
In the case of `CC1CC1C(=O)Nc1ccc(-c2ccnc(Nc3ccc(N4CCOCC4)cc3)n2)cc1C#N` (stereo not drawn) [compound 415, N-[2-cyano-4-(2-{[4-(morpholin-4-yl)phenyl]amino}pyrimidin-4-yl)phenyl]-2-methylcyclopropane-carboxamide], the IC50 was below 5 nM at IKKε (setting [2]), below 100 nM in test [1] (setting [3]) and below 10 nM on TBK1 (setting [4]).
For the compound `CC(C)C(=O)Nc1ccc(-c2ccnc(Nc3ccc(CC(=O)N4CCN(C(C)C)CC4)cc3)n2)cc1C#N` [compound 418, N-(2-cyano-4-{2-[(4-{2-oxo-2-[4-(propan-2-yl)piperazin-1-yl]ethyl}phenyl)amino]pyrimidin-4-yl}phenyl)-2-methylpropanamide], the results for the IC50 (on IKKε (setting [2]); in test [1] (setting [3]); at TBK1 (setting [4])) were 5 to 50 nM, below 100 nM and below 10 nM, respectively.
On the same counts, the results for `COc1cc(Nc2nccc(-c3ccc(NC(=O)C(C)C)c(C#N)c3)n2)ccc1OCCCN1CCOCC1` [compound 434, N-{2-cyano-4-[2-({3-methoxy-4-[3-(morpholin-4-yl)propoxy]phenyl}amino)pyrimidin-4-yl]phenyl}-2-methylpropanamide] are 5 to 50 nM, below 100 nM and below 10 nM.
In the case of `COc1cc(-c2ccnc(Nc3ccc(N4CCOCC4)cc3)n2)cc(C#N)c1OC1CCN(C(=O)[C@@H](C)O)CC1` [compound 436, 2-({1-[(2R)-2-Hydroxypropanoyl]piperidin-4-yl}oxy)-3-methoxy-5-(2-{[4-(morpholin-4-yl)phenyl]amino}pyrimidin-4-yl)benzonitrile], the IC50 was below 5 nM on IKKε (setting [2]), below 100 nM in test [1] (setting [3]) and below 10 nM on TBK1 (setting [4]).
On the same counts, the results for `CC1(COc2ccc(-c3ccnc(Nc4ccc(N5CCN(CCO)CC5)cc4)n3)cc2C#N)COC1` [compound 437, 5-[2-({4-[4-(2-Hydroxyethyl)piperazin-1-yl]phenyl}amino)pyrimidin-4-yl]-2-[(3-methyloxetan-3-yl)methoxy] benzonitrile] are below 5 nM, 100 to 250 nM and below 10 nM.
The like results for `N#Cc1cc(-c2ccnc(Nc3ccc(N4CCOCC4)cc3)n2)ccc1OCC1CC1` [compound 438, 2-(cyclopropylmethoxy)-5-(2-{[4-(morpholin-4-yl)phenyl]amino}pyrimidin-4-yl)benzonitrile] were, in that order, below 5 nM, below 100 nM and below 10 nM.
As for `N#Cc1cc(-c2ccnc(Nc3ccc(N4CCN(CCO)CC4)cc3)n2)ccc1OCC1CC1` [compound 439, 2-(Cyclopropylmethoxy)-5-[2-({4-[4-(2-hydroxyethyl)piperazin-1-yl]phenyl}amino)pyrimidin-4-yl]benzonitrile], the IC50 at IKKε (Table 3, read-out: IKKε IC50) is 0.4 nM; on IKKε (setting [2]) it was below 5 nM; in test [1] (HEK293T cells in culture, Table 3, read-out: pIRF3 ELISA IC50), 8 nM; in test [1] (setting [3]) it was below 100 nM; on TBK1 (Table 3, read-out: TBK1 IC50), 0.3 nM; at TBK1 (setting [4]) it was below 10 nM.

As usually defined, the IC50 is the concentration that gives 50% inhibition.
